The values below come from patent US7897601B2, “Cannabinoid receptor modulators” (Intervet, Inc., priority 2006, dated 2011).

Molecules are shown by their SMILES.

The assay addresses T1, cannabinoid CB1 (Homo sapiens, UniProt P21554).
T1 construct: purchased
Kind of assay: Competition binding assay for cannabinoid CB1 affinity (3H-CP55,940 displacement). The procedure:
Competition binding assays for cannabinoid CB1 and CB2 affinity were performed by incubating commercially purchased membranes prepared from cells expressing each receptor subtype (8 μg pro) with 0.5 nM ^3H-CP55,940, a non-selective cannabinoid agonist, along with concentrations of drug ranging from 0.0001-3 μM in Buffer A (5 mM MgCl2, 2.5 mM EDTA and […] BSA). Non-specific binding was defined in the presence of 10 μM CP55,940. For saturation studies, concentrations of ^3H-CP55,940 ranging from 0.1-5 nM were incubated with membranes in the presence and absence of 10 μM CP55,940. Assays were terminated after incubation for 1½ hours by rapid filtration onto 0.3% polyethylenamine treated GF/C filterplates using a BRANDEL cell harvester. […]
The dissociation constant (Kd) of ^3H-CP55,940 at the CB1 and CB2 receptor were determined by plotting specific binding at each concentration of radioligand, and analysis by non-linear regression. For competition studies, the concentration of each drug that inhibited 50 percent of ^3H-CP55,940 binding (IC50) was determined by non-linear regression analysis of the radioligand displacement curves. Affinity constants (Ki) were calculated using the equation derived by Cheng and Prusoff (1973), defined as: IC50/1+[conc. ligand/Kd].

T1 sequence (P21554 whole entry): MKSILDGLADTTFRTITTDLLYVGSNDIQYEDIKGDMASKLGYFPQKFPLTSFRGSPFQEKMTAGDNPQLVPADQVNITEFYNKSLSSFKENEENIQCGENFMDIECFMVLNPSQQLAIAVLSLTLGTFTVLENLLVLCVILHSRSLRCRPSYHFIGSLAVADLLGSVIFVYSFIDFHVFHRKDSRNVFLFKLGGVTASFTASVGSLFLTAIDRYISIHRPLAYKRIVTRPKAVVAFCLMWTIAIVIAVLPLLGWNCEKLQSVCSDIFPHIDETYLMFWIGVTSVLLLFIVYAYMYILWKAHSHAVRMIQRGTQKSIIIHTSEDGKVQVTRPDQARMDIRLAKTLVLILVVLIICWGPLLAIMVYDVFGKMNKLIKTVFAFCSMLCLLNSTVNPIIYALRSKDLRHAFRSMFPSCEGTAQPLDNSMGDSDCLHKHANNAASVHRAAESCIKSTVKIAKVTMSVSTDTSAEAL

`O=C(NC1CCCC1)C1CCC(c2ccc(Cl)cc2)=C(c2ccc(Cl)cc2)C1` (stereo not shown) [Compound 180] yielded a Ki of 1 to 10 nM.
